Measured values taken from US6423732B1, “Synergistic combinations of cyproconazole” (Syngenta Participations AG, priority 1992, dated 2002).

Assays:
Test in all cases: Wood preservation test ES 84/113, pine sapwood, weight loss of wood samples
Assay type in all cases: cell-based
[1] = tested on: Trametes (Coriolus) versicolor; settings: substance alone
Procedure: (§1) Determination of the Activity of the Cyproconazole in Combination with Dimethyldidecylammonium Chloride Against Wood-destroying Basidiomycetes
(§2) The active substances were tested in accordance with European Testing Standards ES 84 (1979) and 113 (1986). Treatment with the active substances prevents the wood from being destroyed. The effect of the treatment is quantified indirectly via the non-existing weight loss of the wood samples.
(§3) The wood sample used was pine sapwood, and the test fungi used were Coniophora puteana (cellar fungus), Poria plazenta, Gloeophyllum trabeum and Trametes (Coriolus) versicolor. Markedly smaller amounts of the combination according to the invention of cyproconazole (A: 2-(4-chlorophenyl)-3-cyclopropyl-3-methyl-1-(1H,1,2,4-triazol-1-yl)-butan-2-ol) and dimethyldidecylammonium chloride (B1) have the same result (0% weight loss) as cyproconazole or B1 alone. Comparably good results were also obtained when beech was used as the wood sample.

[2] = tested on: Gloeophyllum trabeum; settings: Gloephyllum, substance alone
Procedure: as §1, §2, §3

[3] = tested on: Poria plazenta; settings: substance alone
Procedure: as §1, §2, §3

[4] = tested on: Coniophora puteana (cellar fungus); settings: substance alone
Procedure: as §1, §2, §3

CCCCCCCCCC[N+](C)(C)CCCCCCCCCC.[Cl-] [B1, dimethyldidecylammonium chloride]
Amount (g/m^3) of active Substance at 0% Weight Loss [1]: 2,675 g g/m^3 | Amount (g/m^3) of active Substance at 0% Weight Loss [2]: 12,505 g g/m^3 | Amount (g/m^3) of active Substance at 0% Weight Loss [3]: 3,175 g g/m^3 | Amount (g/m^3) of active Substance at 0% Weight Loss [4]: 12,415 g g/m^3

CC(C1CC1)C(O)(Cn1cncn1)c1ccc(Cl)cc1 (centres unmarked) [A]
Amount (g/m^3) of active Substance at 0% Weight Loss [1]: 418 g g/m^3 | Amount (g/m^3) of active Substance at 0% Weight Loss [2]: 247 g g/m^3 | Amount (g/m^3) of active Substance at 0% Weight Loss [3]: 243 g g/m^3 | Amount (g/m^3) of active Substance at 0% Weight Loss [4]: 247 g g/m^3
